Data on two compounds can be found in US20140038847A1, “SCREENING AND CULTURING DEVICE AND METHODS FOR THE USE THEREOF” (Microstem, Inc., priority 2010, published 2014).

Data set [1] concerns MCF-7 breast carcinoma cells. Kind of data set: Paclitaxel multiparameter cytotoxicity in MCF-7 cells attached to ECM spots of the array (Cellomics Multiparameter Cytotoxicity 3 kit). The class given is cell-based, human. Particulars: cells grown on matrix of collagen IV, collagen V and fibronectin in equal concentrations, compared with fibronectin alone.
Procedure: The human breast adenocarcinoma cell line MCF-7 was purchased from American Type Culture Collection (ATCC). Cells were cultured in minimal essential medium (DMEM), supplemented with 10% FBS and antibiotics (100 IU/ml of penicillin G), then incubated at 37° C. in a humidified atmosphere of 5% CO2. […] MCF-7 cells were seeded into 4 well plates containing an exemplary microarray slide according to the present invention at a density of about 0.1×10^6 cells/ml in 5 ml complete medium (0.5×10^6 cells/slide, total 8 slides) and cultured at 37° C. After 7 h of incubation, non adherent cells were removed and the slide was washed 1× with complete culture medium. New media with varying concentrations of paclitaxel was added ranging from 0 nM-3 uM (0 nM, 3 nM, 10 nM, 30 nM, 100 nM, 300 nm, 1 μM, 3 μM). Cells were incubated for about 16 h at 37° C. Slides were processed using the protocol provided by the manufacturer of the Cellomics Multiparameter Cytotoxicity 3 kit, employing the reagents included in the kit. […] The resulting slides were kept protected from light and analyzed within about 24 h. […] Compartmental Analysis BioApplication (Cellomics) software was used to quantify fluorescent signal. […]
Data set [2] relates to A549 lung cancer cell line. Kind of data set: TGF-β-induced epithelial mesenchymal transition of A549 cells on MicroMatrix ECM array (e-cadherin / vimentin staining). The class given is cell-based, human. The method, then: Packages containing products which embody present invention (MicroMatrix™ slides) were removed from −20° C. and brought to room temperature (RT). Using sterile techniques, 4 MicroMatrix™ slides were removed from packaging and put into a 4-chamber slide tray. A549 cells (ATCC, Rockville, Md.) were cultured according to manufacturer's protocol in complete medium of DMEM containing 10% FBS and antibiotics (Life Technology, CA) in standard tissue culture treated T-75 flasks (Corning).
Cells were trypsinized with EDTA for 5 minutes and neutralized with 10 ml of complete medium. Neutralized cell suspensions were put into a 50 ml conical tube and centrifuged for 6 minutes at 1100 rpm. Five milliliters of complete medium containing 5×10^5 cells was added to each of 4 identical MicroMatrix™ slides in the slide tray. The tray was placed in a 37° C. incubator with 5% CO2 and cells were allowed to attach to ECM spots overnight (14 hrs).
Unattached cells and media were aspirated from the slides and 5 ml of media containing 1% FBS with or without 5 ng/ml of TGF-β were added to each chamber. After 24 hrs, media was aspirated from the chamber and 5 ml of 4% para-formaldehyde (PFA) in 1×PBS (fixation buffer) was added to each slide for 10 minutes at RT.
Fixation buffer was aspirated from chambers and fixed slides were stained for nuclei, e-cadherin and vimentin expression. Briefly, mouse anti-human e-cadherin antibody (BD, CA) and rabbit anti-human vimentin (Cell Signaling Technology) antibody were added to each of 4 slides at a 1:100 dilution in PBS at RT for 3 hours. […]
Cell adhesion was determined by the number of nuclei present on a spot. […] Cells adhered to ECM compositions that met the 25 cell/spot criteria were then analyzed for e-cadherin and vimentin expression using the same Bioapplication software. A ring was formed around segmented objects (nuclei) and fluorescence measurements for secondary channels were captured. Average intensities of e-cadherin and vimentin were calculated and normalized by cells per spot.

[3] abbreviates: A549 on certain combinations of ECMs, 24 hrs, 5 ng/ml TGF-β, compared with other ECM compositions.

As to `CC(=O)O[C@H]1C(=O)[C@@]2(C)[C@H]([C@H](OC(=O)c3ccccc3)[C@]3(O)C[C@H](OC(=O)[C@H](O)[C@@H](NC(=O)c4ccccc4)c4ccccc4)C(C)=C1C3(C)C)[C@]1(OC(C)=O)CO[C@@H]1C[C@@H]2O` [paclitaxel, Paclitaxel], the “cytotoxic response of MCF-7 cells to paclitaxel (same cytotoxicity parameters)” value in data set [1] is given as “maintain a resistance to paclitaxel”.

For TGF-β, in data set [2] (setting [3]), the “e-cadherin expression (epithelial marker)” value is on record as “decreases in e-cadherin” and the “vimentin expression (mesenchymal marker)” value is on record as “increases in vimentin expression”. For the same compound, in data set [2] (certain ECM compositions that promote attachment without TGF-β, upon addition of TGF-β), the A549 cell attachment result is given as “cell detachment is observed”.
